This is an account of results in the supplement of paper PMC12076712.

Some results are limits rather than exact numbers.

What is called pIC50 is −log10 of the IC50, conventionally taken in molar units. A higher pIC50 goes with a low IC50.

What all share (test): pIC50, kinobeads binding competition
Test [1] deals with RPS6KA6 (UniProt Q9UK32). As to conditions: cell material: Lysate mix. The gist of the method:
(§1)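 Fold changes relative to vehicle, from biological duplicates, were fitted with logistic dose-response models in the R drc package to give pIC50. These fold changes came from TMT10 LC-MS/MS quantification of digested Kinobeads-bound proteins. Compound was applied at nine concentrations (top 30 μM) either to live Jurkat cells in 1:4 steps for 60 min at 37 °C before lysis, or to Jurkat lysate or a 1:1:1:1 HEK293/K-562/HepG2/placenta lysate mix in 1:5 steps for 60 min at 4 °C.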

In test [2] the target is BTK (UniProt Q06187). Conditions: cell material: Lysate mix. The method in brief:
as §1

For test [3], the target named is T1, ADCK1 (UniProt Q86TW2).
T1 sequence (whole entry): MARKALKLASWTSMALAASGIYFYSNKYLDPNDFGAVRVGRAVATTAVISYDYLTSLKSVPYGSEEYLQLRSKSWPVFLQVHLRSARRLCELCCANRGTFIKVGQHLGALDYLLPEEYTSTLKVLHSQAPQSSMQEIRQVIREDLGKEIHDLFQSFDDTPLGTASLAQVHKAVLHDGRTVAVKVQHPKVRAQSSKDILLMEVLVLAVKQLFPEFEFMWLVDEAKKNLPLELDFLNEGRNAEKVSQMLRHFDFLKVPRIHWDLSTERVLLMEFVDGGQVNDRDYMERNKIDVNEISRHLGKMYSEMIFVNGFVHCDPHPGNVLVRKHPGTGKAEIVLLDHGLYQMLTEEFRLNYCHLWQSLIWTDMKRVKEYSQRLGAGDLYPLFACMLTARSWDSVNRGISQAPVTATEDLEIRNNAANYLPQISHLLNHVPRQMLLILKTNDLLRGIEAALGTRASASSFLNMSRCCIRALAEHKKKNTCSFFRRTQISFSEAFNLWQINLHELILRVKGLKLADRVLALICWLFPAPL
As to conditions: cell material: Lysate mix. The method in brief: as §1

Test [4] addresses T2, EPHA1 (UniProt P21709).
T2 sequence (whole entry): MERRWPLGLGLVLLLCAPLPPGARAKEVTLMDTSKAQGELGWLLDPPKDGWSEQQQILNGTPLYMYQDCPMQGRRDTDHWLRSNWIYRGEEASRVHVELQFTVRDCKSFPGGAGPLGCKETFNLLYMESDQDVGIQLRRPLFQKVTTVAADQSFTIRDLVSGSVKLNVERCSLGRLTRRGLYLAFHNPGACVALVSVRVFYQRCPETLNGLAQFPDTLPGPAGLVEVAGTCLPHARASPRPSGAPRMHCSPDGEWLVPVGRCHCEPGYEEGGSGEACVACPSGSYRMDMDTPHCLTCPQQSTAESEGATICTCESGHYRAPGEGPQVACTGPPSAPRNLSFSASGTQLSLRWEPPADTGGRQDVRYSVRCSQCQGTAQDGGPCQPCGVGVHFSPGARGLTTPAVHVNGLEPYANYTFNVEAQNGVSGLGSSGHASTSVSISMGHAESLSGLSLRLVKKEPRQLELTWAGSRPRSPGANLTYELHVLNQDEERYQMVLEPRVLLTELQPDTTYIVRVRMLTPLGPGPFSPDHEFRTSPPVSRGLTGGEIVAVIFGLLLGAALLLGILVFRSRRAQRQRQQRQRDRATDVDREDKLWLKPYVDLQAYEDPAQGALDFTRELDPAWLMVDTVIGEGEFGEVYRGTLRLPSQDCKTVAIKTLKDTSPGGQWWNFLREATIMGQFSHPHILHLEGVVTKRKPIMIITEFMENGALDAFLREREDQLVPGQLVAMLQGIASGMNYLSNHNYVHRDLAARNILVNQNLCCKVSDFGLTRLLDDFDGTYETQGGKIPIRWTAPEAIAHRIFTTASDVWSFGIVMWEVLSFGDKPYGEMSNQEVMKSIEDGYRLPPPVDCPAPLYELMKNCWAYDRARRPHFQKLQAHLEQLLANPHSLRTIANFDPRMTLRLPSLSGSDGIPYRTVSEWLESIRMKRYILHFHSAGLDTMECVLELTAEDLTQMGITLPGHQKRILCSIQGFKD
As to conditions: cell material: Lysate mix. The method in brief:
as §1

Test [5] has as its target UniProt Q16512. The method in brief: as §1
Test [6] addresses MAPKAPK3 (UniProt Q16644). The gist of the method:
as §1

The target of test [7] is PAK2 (UniProt Q13177). The method in brief: as §1
PAK2, sequence (Q13177 whole entry): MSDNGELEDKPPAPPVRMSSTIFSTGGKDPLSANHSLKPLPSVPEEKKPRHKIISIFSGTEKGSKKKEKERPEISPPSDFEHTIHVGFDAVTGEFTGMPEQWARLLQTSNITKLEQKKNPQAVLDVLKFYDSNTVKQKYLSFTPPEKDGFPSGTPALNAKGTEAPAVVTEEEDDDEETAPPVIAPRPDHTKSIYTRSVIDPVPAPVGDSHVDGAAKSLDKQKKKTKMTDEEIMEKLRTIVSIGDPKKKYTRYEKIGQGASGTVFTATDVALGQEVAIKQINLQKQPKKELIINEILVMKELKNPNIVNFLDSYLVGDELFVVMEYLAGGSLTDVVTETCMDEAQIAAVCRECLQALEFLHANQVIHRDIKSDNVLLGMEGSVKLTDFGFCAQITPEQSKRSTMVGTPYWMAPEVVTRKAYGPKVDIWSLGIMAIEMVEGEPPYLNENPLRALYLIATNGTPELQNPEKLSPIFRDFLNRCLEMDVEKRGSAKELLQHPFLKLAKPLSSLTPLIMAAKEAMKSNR
In test [8] the target is UniProt P80192. The gist of the method:
as §1

The target of test [9] is T3, UniProt Q96D53.
T3 sequence (whole entry): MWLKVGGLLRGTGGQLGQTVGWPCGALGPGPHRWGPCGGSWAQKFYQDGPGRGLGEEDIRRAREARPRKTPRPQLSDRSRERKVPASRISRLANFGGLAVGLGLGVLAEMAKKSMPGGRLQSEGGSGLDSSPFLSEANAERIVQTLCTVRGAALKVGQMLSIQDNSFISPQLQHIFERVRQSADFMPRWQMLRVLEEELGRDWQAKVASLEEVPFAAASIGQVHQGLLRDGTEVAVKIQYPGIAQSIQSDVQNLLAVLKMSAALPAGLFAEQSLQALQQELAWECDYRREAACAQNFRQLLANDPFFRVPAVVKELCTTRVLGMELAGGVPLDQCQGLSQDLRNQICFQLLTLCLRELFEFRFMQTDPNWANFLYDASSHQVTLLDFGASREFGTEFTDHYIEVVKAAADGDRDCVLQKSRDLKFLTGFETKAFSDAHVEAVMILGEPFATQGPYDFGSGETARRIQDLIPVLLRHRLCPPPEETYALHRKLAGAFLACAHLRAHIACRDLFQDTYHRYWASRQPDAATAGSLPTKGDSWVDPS
The gist of the method: as §1

The target of test [10] is AXL (UniProt P30530). Conditions: cell material: Lysate mix. The method in brief:
as §1

Test [11] has as its target TNIK (UniProt Q9UKE5). The method in brief:
as §1

Test [12] has as its target UniProt Q9Y6M4. As to conditions: cell material: Lysate mix. The method in brief: as §1
Test [13] deals with SRPK1 (UniProt Q96SB4). The gist of the method: as §1
SRPK1, sequence (Q96SB4 whole entry): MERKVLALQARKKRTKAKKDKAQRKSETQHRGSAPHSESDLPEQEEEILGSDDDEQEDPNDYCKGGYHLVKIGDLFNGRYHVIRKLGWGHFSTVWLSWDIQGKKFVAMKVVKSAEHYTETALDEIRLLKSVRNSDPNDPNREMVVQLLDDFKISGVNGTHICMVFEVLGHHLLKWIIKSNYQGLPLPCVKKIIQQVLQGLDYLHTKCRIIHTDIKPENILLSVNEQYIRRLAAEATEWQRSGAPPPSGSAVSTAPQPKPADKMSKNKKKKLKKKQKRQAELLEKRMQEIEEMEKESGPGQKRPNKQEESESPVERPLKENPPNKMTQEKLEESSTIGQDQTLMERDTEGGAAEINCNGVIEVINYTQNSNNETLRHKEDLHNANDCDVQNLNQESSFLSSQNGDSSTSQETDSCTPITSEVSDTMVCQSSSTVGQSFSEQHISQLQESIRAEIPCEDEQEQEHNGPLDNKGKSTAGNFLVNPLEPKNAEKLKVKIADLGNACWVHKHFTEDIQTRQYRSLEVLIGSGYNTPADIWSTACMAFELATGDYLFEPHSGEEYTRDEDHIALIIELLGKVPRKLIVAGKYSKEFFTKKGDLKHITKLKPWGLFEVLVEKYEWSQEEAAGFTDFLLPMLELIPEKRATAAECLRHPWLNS

MAPKAPK3, sequence (Q16644 whole entry, looked up): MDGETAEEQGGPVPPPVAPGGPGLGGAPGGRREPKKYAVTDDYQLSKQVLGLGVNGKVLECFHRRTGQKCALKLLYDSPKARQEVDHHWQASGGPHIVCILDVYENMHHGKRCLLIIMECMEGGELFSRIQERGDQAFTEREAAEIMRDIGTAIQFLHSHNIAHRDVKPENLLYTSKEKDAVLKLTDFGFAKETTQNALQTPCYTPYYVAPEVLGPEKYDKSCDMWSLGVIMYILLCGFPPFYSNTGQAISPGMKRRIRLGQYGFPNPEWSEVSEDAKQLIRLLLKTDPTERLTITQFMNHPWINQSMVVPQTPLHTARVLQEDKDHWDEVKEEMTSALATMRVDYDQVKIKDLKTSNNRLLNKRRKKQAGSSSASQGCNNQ
UniProt Q16512, sequence (Q16512 whole entry, looked up): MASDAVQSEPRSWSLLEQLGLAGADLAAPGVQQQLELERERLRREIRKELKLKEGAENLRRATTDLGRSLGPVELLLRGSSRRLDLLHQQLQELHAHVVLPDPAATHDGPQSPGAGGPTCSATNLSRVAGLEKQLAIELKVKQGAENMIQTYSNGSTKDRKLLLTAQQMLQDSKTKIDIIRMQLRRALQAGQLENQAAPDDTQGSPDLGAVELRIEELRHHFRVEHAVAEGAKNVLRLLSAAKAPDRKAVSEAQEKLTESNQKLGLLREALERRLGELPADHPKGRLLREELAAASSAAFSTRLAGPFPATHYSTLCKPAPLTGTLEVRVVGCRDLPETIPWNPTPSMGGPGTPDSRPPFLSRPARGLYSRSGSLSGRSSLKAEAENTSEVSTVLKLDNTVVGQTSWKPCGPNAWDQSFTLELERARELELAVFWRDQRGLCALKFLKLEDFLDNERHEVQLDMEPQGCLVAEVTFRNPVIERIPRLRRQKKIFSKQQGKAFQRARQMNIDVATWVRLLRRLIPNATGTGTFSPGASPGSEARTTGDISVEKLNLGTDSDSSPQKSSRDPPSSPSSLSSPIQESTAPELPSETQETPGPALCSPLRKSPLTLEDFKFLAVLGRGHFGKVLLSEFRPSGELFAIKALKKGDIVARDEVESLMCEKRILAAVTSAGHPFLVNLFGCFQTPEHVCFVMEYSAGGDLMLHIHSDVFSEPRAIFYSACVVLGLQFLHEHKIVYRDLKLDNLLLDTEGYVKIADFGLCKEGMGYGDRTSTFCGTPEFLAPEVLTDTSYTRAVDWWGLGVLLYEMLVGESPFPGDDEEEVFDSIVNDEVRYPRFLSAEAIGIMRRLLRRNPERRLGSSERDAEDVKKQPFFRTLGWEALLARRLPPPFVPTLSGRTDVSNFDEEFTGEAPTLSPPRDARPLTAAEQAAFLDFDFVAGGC
AXL, sequence (P30530 whole entry): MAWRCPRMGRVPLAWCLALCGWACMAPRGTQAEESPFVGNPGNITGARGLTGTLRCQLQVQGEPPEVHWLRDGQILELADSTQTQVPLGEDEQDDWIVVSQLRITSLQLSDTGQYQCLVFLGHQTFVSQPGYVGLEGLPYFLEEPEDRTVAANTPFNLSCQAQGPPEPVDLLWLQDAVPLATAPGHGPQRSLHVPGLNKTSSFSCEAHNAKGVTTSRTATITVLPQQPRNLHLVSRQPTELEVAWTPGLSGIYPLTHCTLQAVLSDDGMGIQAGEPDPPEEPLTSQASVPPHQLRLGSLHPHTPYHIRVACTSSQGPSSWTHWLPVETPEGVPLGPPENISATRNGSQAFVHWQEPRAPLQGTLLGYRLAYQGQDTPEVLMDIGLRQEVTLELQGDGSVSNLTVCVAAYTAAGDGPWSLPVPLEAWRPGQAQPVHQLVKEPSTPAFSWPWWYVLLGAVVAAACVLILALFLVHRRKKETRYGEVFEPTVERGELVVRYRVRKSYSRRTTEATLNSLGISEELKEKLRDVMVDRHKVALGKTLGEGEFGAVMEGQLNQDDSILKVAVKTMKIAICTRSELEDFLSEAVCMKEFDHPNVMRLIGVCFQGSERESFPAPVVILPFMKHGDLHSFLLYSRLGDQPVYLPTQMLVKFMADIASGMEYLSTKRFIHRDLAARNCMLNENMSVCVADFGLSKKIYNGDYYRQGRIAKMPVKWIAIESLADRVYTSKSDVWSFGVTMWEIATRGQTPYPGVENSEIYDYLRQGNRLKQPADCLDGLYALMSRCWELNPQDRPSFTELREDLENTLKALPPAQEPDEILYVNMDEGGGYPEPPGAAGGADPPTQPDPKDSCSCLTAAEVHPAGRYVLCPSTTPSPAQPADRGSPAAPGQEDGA
UniProt P80192, sequence (P80192 whole entry, looked up): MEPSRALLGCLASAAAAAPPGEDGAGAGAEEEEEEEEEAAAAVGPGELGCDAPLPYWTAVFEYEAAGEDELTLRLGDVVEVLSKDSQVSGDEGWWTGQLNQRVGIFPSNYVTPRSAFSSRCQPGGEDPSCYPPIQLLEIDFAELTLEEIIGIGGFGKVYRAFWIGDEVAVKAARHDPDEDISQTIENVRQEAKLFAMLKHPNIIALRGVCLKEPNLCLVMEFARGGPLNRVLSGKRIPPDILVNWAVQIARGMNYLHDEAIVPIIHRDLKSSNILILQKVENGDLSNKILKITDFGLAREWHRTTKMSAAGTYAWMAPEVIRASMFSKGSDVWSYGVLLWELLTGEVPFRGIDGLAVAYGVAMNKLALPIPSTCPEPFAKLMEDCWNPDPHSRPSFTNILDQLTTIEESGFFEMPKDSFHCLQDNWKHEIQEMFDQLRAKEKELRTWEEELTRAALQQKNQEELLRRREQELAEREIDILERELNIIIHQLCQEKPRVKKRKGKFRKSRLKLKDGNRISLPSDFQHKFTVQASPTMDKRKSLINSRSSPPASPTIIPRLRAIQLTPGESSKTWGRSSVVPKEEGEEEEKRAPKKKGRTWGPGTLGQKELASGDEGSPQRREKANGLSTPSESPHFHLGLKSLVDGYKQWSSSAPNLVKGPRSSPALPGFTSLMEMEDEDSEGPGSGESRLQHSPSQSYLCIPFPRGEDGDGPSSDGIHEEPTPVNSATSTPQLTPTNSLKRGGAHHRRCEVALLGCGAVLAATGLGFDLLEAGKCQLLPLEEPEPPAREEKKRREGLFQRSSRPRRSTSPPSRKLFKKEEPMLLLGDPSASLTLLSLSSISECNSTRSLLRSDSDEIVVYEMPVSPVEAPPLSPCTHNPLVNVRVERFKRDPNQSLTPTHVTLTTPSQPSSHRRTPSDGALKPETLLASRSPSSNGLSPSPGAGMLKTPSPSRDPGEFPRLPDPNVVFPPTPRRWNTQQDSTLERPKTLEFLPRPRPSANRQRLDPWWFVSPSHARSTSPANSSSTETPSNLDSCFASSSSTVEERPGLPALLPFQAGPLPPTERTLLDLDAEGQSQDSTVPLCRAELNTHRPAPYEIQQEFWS
UniProt Q9Y6M4, sequence (Q9Y6M4 whole entry, looked up): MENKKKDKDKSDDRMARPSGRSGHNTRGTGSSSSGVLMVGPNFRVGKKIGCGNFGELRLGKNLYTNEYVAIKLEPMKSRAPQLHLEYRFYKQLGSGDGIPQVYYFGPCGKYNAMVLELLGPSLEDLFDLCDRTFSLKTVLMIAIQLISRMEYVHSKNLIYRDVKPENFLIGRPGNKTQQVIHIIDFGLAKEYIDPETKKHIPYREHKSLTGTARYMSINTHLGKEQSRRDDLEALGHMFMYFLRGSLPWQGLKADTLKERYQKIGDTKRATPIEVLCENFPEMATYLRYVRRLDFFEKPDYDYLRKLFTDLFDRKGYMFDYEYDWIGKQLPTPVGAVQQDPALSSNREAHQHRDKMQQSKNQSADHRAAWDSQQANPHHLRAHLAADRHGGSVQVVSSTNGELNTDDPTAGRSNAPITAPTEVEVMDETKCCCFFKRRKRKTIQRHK

On to `C#CCNC(=O)c1cc(Nc2cc(C)[nH]n2)nc(N2CCN(Cc3ccc(S(=O)(=O)F)cc3)CC2)n1`, for which the pIC50 in [1], in [2], in test [3], in test [4] and in test [5] (cell material: Lysate mix) was < 4.52 each time.
As to `O=C(NCCNC(=O)c1cc(Nc2cc(C3CC3)[nH]n2)nc(N2CCN(Cc3ccc(S(=O)(=O)F)cc3)CC2)n1)OC1CC/C=C/CCC1` (stereo unspecified), the pIC50 in [1] is < 4.52; in [2], < 4.52; in test [6] (cell material: Jurkat cells) it was 6.36; in test [6] (cell material: Jurkat lysate), 6.28; in test [6] (cell material: Lysate mix), < 4.52; in [7] (cell material: Jurkat cells), < 4.52. Further, the pIC50 in test [8] (cell material: Jurkat cells) is 6.19; in test [8] (cell material: Jurkat lysate), < 4.52; in test [8] (cell material: Lysate mix), < 4.52; in [9] (cell material: Jurkat cells) it was < 4.52; in test [9] (cell material: Lysate mix), < 4.52; in [3], < 4.52. In addition, the pIC50 in test [10] is 4.72; in test [11] (cell material: Jurkat cells) it was 5.6; in [11] (cell material: Jurkat lysate), < 4.52; in test [11] (cell material: Lysate mix) it was < 4.52; in test [12], < 4.52; in test [4], < 4.52. The pIC50 in test [13] (cell material: Jurkat cells), in [5] (cell material: Jurkat lysate) and in test [5] (cell material: Lysate mix) was < 4.52 each time.
Take `CCNC(=O)c1cc(Nc2cc(C3CC3)[nH]n2)nc(N2CCN(Cc3ccc(S(=O)(=O)F)cc3)CC2)n1`: the pIC50 in [1] was 4.87; in test [8] (cell material: Lysate mix), 5.78; in [12] it was 4.89.
For the molecule `Cc1cc(Nc2cc(C(=O)NCCNC(=O)OC3CC/C=C/CCC3)nc(N3CCN(Cc4ccc(S(=O)(=O)F)cc4)CC3)n2)n[nH]1` (stereo unspecified), the pIC50 in test [1], in [2], in [7] (cell material: Lysate mix), in test [8] (cell material: Lysate mix), in [3] and in test [11] (cell material: Lysate mix) was < 4.52 each time. Moreover, the pIC50 in [4], in [13] (cell material: Lysate mix) and in test [5] (cell material: Lysate mix) was < 4.52 throughout.
Consider `CCNC(=O)c1cc(Nc2cc(C)[nH]n2)nc(N2CCN(Cc3ccc(S(=O)(=O)F)cc3)CC2)n1`, for which the pIC50 in test [2] is < 4.52; in [6] (cell material: Lysate mix), 5.74; in test [9] (cell material: Lysate mix), < 4.52; in test [3], < 4.52; in test [10], 4.74; in test [11] (cell material: Lysate mix) it was < 4.52. Also, the pIC50 in test [12], in test [4] and in test [5] (cell material: Lysate mix) was < 4.52 in each case.
In the case of `C#CCNC(=O)c1cc(Nc2cc(C3CC3)[nH]n2)nc(N2CCN(Cc3ccc(S(=O)(=O)F)cc3)CC2)n1`, the pIC50 in test [1] was 4.94; in test [6] (cell material: Jurkat cells), 6.53; in test [6] (cell material: Jurkat lysate) it was 6.64; in test [7] (cell material: Jurkat cells), < 4.52; in [7] (cell material: Jurkat lysate), < 4.52; in [8] (cell material: Jurkat cells), 6.42. For the same molecule, the pIC50 was 5.9 in [8] (cell material: Jurkat lysate); 6.2 in test [8] (cell material: Lysate mix); < 4.52 in [9] (cell material: Jurkat cells); < 4.52 in [3]; < 4.52 in [10]; < 4.52 in [11] (cell material: Jurkat lysate). In addition, the pIC50 in test [11] (cell material: Lysate mix) was 5.27; in test [12], < 4.52; in test [4] it was 4.66; in test [13] (cell material: Jurkat cells), < 4.52; in [5] (cell material: Jurkat cells), 5.36; in test [5] (cell material: Jurkat lysate), < 4.52. In test [5] (cell material: Lysate mix), the pIC50 was < 4.52.
